# Data reported in US20030236218A1, “Aryl phosphate derivatives of d4T with selective activity against adenovirus and HIV” (priority 2002, published 2003).
# What was measured:
# [1] = Stability in plasma in the presence of selective esterase inhibitors; conditions: 250 μM
# [2] = Stability in simulated intestinal fluid; format: in vitro ADME; conditions: 100 μM, 37° C.
# Experimental: (§1) The spiked fluids were then placed in a 37° C. water bath. At a predetermined time, 100 μI aliquots of the spiked gastric or intestinal fluid were extracted by adding 400 μl of acetone as discussed above.
# [3] = Stability in simulated gastric fluid; format: in vitro ADME; conditions: 100 μM, 37° C., 8 hours, listed as d4T-5′-[p-bromophenyl methoxyalaninyl phosphate]
# Experimental: as §1
# Stability in plasma = format: in vitro ADME
# Experimental: Plasma samples (200 μL) were mixed 1:4 with acetone (800 μL) and vortexed for at least 30 seconds. Following centrifugation, the supernatant was transferred into a clean tube and was dried under nitrogen. A 50 μL solution of 50% methanol in 200 mM HCl was used to reconstitute the extraction residue, and 40 μL was injected into the HPLC.
# The whole blood samples were placed in a 37° C. water bath, while plasma samples were stored at −20° C. At a predetermined time, an aliquot (100 μl) of spiked whole blood or plasma was extracted by adding 400 μl of acetone to induce precipitation of proteins, as described above.
smiles,measurement,setting,value
"COC(=O)C(C)NP(=O)(OC[C@@H]1C=C[C@H](n2cc(C)c(=O)[nH]c2=O)O1)Oc1ccc(Br)cc1 (stereo partly drawn) [Compound 113, 5′-[4-Bromophenyl methoxylaninylphosphate]-2′, 3′-didehydro-3′-deoxy thymidine]",mean percent hydrolysis in plasma,"[1]; EDTA (1 mM), arylesterase, 5 min",99%
same,mean percent hydrolysis in plasma,"[1]; EDTA (1 mM), arylesterase, 10 min",100%
same,mean percent hydrolysis in plasma,"[1]; EDTA (1 mM), arylesterase, 15 min",100%
same,mean percent hydrolysis in plasma,"[1]; EDTA (1 mM), arylesterase, 30 min",100%
same,mean percent hydrolysis in plasma,"[1]; EDTA (1 mM), arylesterase, 60 min",100%
same,mean percent hydrolysis in plasma,"[1]; EDTA (1 mM), arylesterase, 120 min",100%
same,mean percent hydrolysis in plasma,"[1]; No inhibitor, 5 min",95%
same,mean percent hydrolysis in plasma,"[1]; No inhibitor, 10 min",98%
same,mean percent hydrolysis in plasma,"[1]; No inhibitor, 15 min",99%
same,mean percent hydrolysis in plasma,"[1]; No inhibitor, 30 min",100%
same,mean percent hydrolysis in plasma,"[1]; No inhibitor, 60 min",100%
same,mean percent hydrolysis in plasma,"[1]; No inhibitor, 120 min",100%
same,mean percent hydrolysis in plasma,"[1]; Paraoxon (0.1 mM), cholinesterase & carboxylesterase, 5 min",0%
same,mean percent hydrolysis in plasma,"[1]; Paraoxon (0.1 mM), cholinesterase & carboxylesterase, 10 min",2%
same,mean percent hydrolysis in plasma,"[1]; Paraoxon (0.1 mM), cholinesterase & carboxylesterase, 15 min",2%
same,mean percent hydrolysis in plasma,"[1]; Paraoxon (0.1 mM), cholinesterase & carboxylesterase, 30 min",2%
same,mean percent hydrolysis in plasma,"[1]; Paraoxon (0.1 mM), cholinesterase & carboxylesterase, 60 min",3%
same,mean percent hydrolysis in plasma,"[1]; Paraoxon (0.1 mM), cholinesterase & carboxylesterase, 120 min",24%
same,mean percent hydrolysis in plasma,"[1]; Physostigmine (0.1 mM), cholinesterase, 5 min",43%
same,mean percent hydrolysis in plasma,"[1]; Physostigmine (0.1 mM), cholinesterase, 10 min",65%
same,mean percent hydrolysis in plasma,"[1]; Physostigmine (0.1 mM), cholinesterase, 15 min",76%
same,mean percent hydrolysis in plasma,"[1]; Physostigmine (0.1 mM), cholinesterase, 30 min",89%
same,mean percent hydrolysis in plasma,"[1]; Physostigmine (0.1 mM), cholinesterase, 60 min",100%
same,mean percent hydrolysis in plasma,"[1]; Physostigmine (0.1 mM), cholinesterase, 120 min",100%
same,stability in intestinal fluid (in words),[2],not stable
same,decomposed in intestinal fluid,[2]; within 2 hours,approximately 94%
same,stability in gastric fluid (in words),[3],relatively stable
same,time to complete decomposition in plasma,Stability in plasma; 250 μM,≤ 30 min
same,decomposed following incubation with plasma,"Stability in plasma; 250 μM, after 5 minutes",over 95%
same,stability in plasma (in words),"Stability in plasma; spiked plasma, 250 μM compound 113, 100 μM Ala-d4T-MP (followed for 1 day)",very unstable
